Results published in patent publication US20230287021A1, “COMPOUNDS, COMPOSITIONS AND METHODS FOR STABILIZING TRANSTHYRETIN AND INHIBITING TRANSTHYRETIN MISFOLDING” (Protego Biopharma, Inc., priority 2020, published 2023).
Structures can show the parent of a compound that is named as a salt.

Assays:
[1] = In vitro rat liver S9 stability assay, formation of tafamidis; format: in vitro ADME; settings: rat liver S9, 37° C., 1 µM test compound
Description: The test compound was added to liver S9 and incubated at 37° C. in a water bath at a concentration of 1 µM. At each time point (0, 5, 10, 20, 30 and 60 min), stop solution (tolbutamide plus labetalol) was added to precipitate protein and mixed thoroughly. After centrifugation, an aliquot of supernatant was analyzed by LC-MS/MS. The percentage of formation of active agent was calculated at each time point.

[2] = In vitro rat plasma stability assay, formation of tafamidis; format: in vitro ADME; settings: 37° C., 2 µM test compound
In short: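 Compound at 2 µM incubated in rat plasma at 37 °C, sampled at 0, 10, 30, 60, 120 min or 0, 60, 120, 180, 240 min. Protein precipitated, supernatant analyzed by LC-MS/MS, and percentage formation of tafamidis calculated per time point.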

[3] = In vivo rat PK: tafamidis in plasma, CSF and brain; set-up: species or system Male Sprague-Dawley (SD) rats; settings: for Tafamidis CSF/Plasma Ratio over 24 hrs (po): po administration of test compound; for Tafamidis CSF/Plasma Ratio (iv): iv administration of test compound
Excerpt: For a compound provided herein to be an effective TTR stabilizer drug to halt and/or prevent the ocular and cerebral TTR amyloid deposition TTR amyloidosis, it has to be able to penetrate into the brain and CSF (surrogate for eye penetration) and deliver a sufficient amount of TTR stabilizer to stop TTR dissociation. A pharmacokinetic study in rat was used to evaluate the compounds. Male Sprague-Dawley (SD) rats (200-220 g weight) were acclimated for at least 2 to 3 days before being placed on study. All animals had access to certified rodent diet and water at libitum. Appropriate amount of the test compound was accurately weighed and mixed with appropriate volume of vehicle (such as DMSO/sterile water for iv dosing or 0.5% methylcellulose homogenous suspension or solution for oral administration or as a solution in a mixture NMP/PEG400/solutol/water) to administer a dose of 2, 5 or 10 mg/kg. For IV dosing the test compound was administered via tail vein or indwelling cannula. For oral dosing, the test compound was administered by oral gavage. Blood and CSF samples were collected at selected timepoints. Blood collection was performed from saphenous vein or tail vein of each animal into polypropylene tubes at each timepoint. All blood samples were transferred into EDTA-K2 tubes and centrifuged for 15 minutes at 4° C. for plasma collection. Plasma samples were kept at -80° C. until LC/MSMS analysis. CSF was collected from cisterna magna at each timepoint and quick frozen over dry ice and kept at -80° C. until LC/MSMS analysis. Brains were harvested immediately after the terminal bleeding (~ 24 hrs post dosing). The blood of the brain was perfused with normal saline. The brain was quickly picked and placed into centrifuge tube. The weight of brain samples was recorded. 4-Fold homogenization solution (MeOH/15 mM PBS (1:2)) was added into the tube according to the weighed samples. The brain was homogenized using a Polytron (3 strokes or more until homogenous, each 30 seconds) on wet ice. The samples were quick frozen over dry ice and kept at -80° C. until LC/MSMS analysis. Using a LC-MSMS method for the quantitative determination of test compound in biological matrixes, amount of test compound and active agent were measured in plasma and CSF at selected timepoints post-dosing and in brain at 24 hrs post dosing. Plasma concentration versus time data was analyzed by non-compartmental approaches using the Phoenix WinNonlin 6.3 software program. As reference, an oral dose of 2 mg/kg of tafamidis gave a CSF to plasma ratio over 24 hrs around 0.01 and a brain to plasma ratio at 24 hrs around 0.02.

Formation of tafamidis at 60 min [1]	Formation of tafamidis at 120 min [2]	Tafamidis CSF/Plasma Ratio over 24 hrs (po) [3]	Tafamidis CSF/Plasma Ratio (iv) [3]	Structure (SMILES)
A (A is <25%)	A (A is <25%)	C (C is ≥0.02)	–	O=C(NCC(F)F)c1ccc2nc(-c3cc(Cl)cc(Cl)c3)oc2c1 [Compound 66, 2-(3,5-dichlorophenyl)-N-(2,2-difluoroethyl)benzo[d]oxazole-6-carboxamide]
B (B is ≥25 to <50%)	–	A (A is < 0.015)	–	CC(CN1CCOCC1)OC(=O)c1ccc2nc(-c3cc(Cl)cc(Cl)c3)oc2c1 (stereo not drawn) [Compound 143]
B (B is ≥25 to <50%)	B (B is ≥25 to <50%)	A (A is < 0.015)	–	CC(Cn1ccnc1)OC(=O)c1ccc2nc(-c3cc(Cl)cc(Cl)c3)oc2c1 (stereo not drawn) [Compound 170]
–	C (C is ≥50 to <75%)	–	C (C is ≥0.02)	CC(CCN(C)C)OC(=O)c1ccc2nc(-c3cc(Cl)cc(Cl)c3)oc2c1 (stereo not drawn) [Compound 49, 4-(dimethylamino)butan-2-yl 2-(3,5-dichlorophenyl)benzo[d] oxazole-6-carboxylate hydrochloride]
B (B is ≥25 to <50%)	B (B is ≥25 to <50%)	–	A (A is <0.015)	O=C(OCCN1CCCC1)c1ccc2nc(-c3cc(Cl)cc(Cl)c3)oc2c1 [Compound 37, 2-(pyrrolidin-1-yl)ethyl 2-(3,5-dichlorophenyl)benzo[d]oxazole-6-carboxylate]
C (C is ≥50 to <75%)	B (B is ≥25 to <50%)	B (B is ≥0.015 to <0.02)	–	O=C(OC1CCN(CC(F)F)C1)c1ccc2nc(-c3cc(Cl)cc(Cl)c3)oc2c1 (stereo not drawn) [Compound 144]
C (C is ≥50 to <75%)	B (B is ≥25 to <50%)	A (A is < 0.015)	–	O=C(OCc1ncccn1)c1ccc2nc(-c3cc(Cl)cc(Cl)c3)oc2c1 [Compound 102]
C (C is ≥50 to <75%)	C (C is ≥50 to <75%)	B (B is ≥0.015 to <0.02)	–	O=C(OCC1CCOC1)c1ccc2nc(-c3cc(Cl)cc(Cl)c3)oc2c1 (stereo not drawn) [Compound 85]
A (A is <25%)	D (D is ≥75%)	A (A is < 0.015)	–	CC(CN(C)C)OC(=O)c1ccc2nc(-c3cc(Cl)cc(Cl)c3)oc2c1 (single isomer, unassigned) [Compound 47, (R*)-1-(dimethylamino)propan-2-yl 2-(3,5-dichlorophenyl)benzo [d] oxazole-6-carboxylate]
–	B (B is ≥25 to <50%)	–	A (A is <0.015)	CCN(C)CCCOC(=O)c1ccc2nc(-c3cc(Cl)cc(Cl)c3)oc2c1 [Compound 48, 3-(ethyl(methyl)amino)propyl 2-(3,5-dichlorophenyl)benzo[d] oxazole-6-carboxylate hydrochloride]
A (A is <25%)	A (A is <25%)	–	B (B is ≥0.015 to <0.02)	CN(C)CCCOC(=O)c1ccc2nc(-c3cc(Cl)cc(Cl)c3)oc2c1 [Compound 1, 3-(Dimethylamino)propyl 2-(3,5-dichlorophenyl)benzo[d]oxazole-6-carboxylate]
C (C is ≥50 to <75%)	B (B is ≥25 to <50%)	A (A is < 0.015)	–	O=C(OCCN1CCS(=O)(=O)CC1)c1ccc2nc(-c3cc(Cl)cc(Cl)c3)oc2c1 [Compound 79]
A (A is <25%)	C (C is ≥50 to <75%)	B (B is ≥0.015 to <0.02)	–	CN1CC[C@@H](OC(=O)c2ccc3nc(-c4cc(Cl)cc(Cl)c4)oc3c2)C1 [Compound 59, (R)-1-methylpyrrolidin-3-yl 2-(3,5-dichlorophenyl)benzo[d] oxazole-6-carboxylate]
A (A is <25%)	A (A is <25%)	A (A is < 0.015)	–	CNC(=O)c1ccc2nc(-c3cc(Cl)cc(Cl)c3)oc2c1 [Compound 87]
A (A is <25%)	C (C is ≥50 to <75%)	B (B is ≥0.015 to <0.02)	–	O=C(OC1CCN(Cc2ccccc2)C1)c1ccc2nc(-c3cc(Cl)cc(Cl)c3)oc2c1 (stereo not drawn) [Compound 76]
A (A is <25%)	A (A is <25%)	–	B (B is ≥0.015 to <0.02)	CN1CCC(COC(=O)c2ccc3nc(-c4cc(Cl)cc(Cl)c4)oc3c2)C1 (stereo not drawn) [Compound 60, (1-methylpyrrolidin-3-yl)methyl 2-(3,5-dichlorophenyl)benzo [d] oxazole-6-carboxylate]
–	A (A is <25%)	–	B (B is ≥0.015 to <0.02)	N[C@@H](Cc1ccc(OC(=O)c2ccc3nc(-c4cc(Cl)cc(Cl)c4)oc3c2)cc1)C(=O)O [Compound 23, (S)-2-amino-3-(4-((2-(3,5-dichlorophenyl)benzo[d]oxazole-6-carbonyl)oxy)phenyl)propanoic acid hydrochloride]
A (A is <25%)	C (C is ≥50 to <75%)	C (C is ≥0.02)	–	CCN1CCC(OC(=O)c2ccc3nc(-c4cc(Cl)cc(Cl)c4)oc3c2)C1 (stereo not drawn) [Compound 74]
A (A is <25%)	A (A is <25%)	A (A is < 0.015)	–	O=C(OCCN1CCNCC1)c1ccc2nc(-c3cc(Cl)cc(Cl)c3)oc2c1 [Compound 82]
B (B is ≥25 to <50%)	B (B is ≥25 to <50%)	B (B is ≥0.015 to <0.02)	–	O=C(OCCc1ncc[nH]1)c1ccc2nc(-c3cc(Cl)cc(Cl)c3)oc2c1 [Compound 153]
A (A is <25%)	–	A (A is < 0.015)	–	CN(C)[C@H]1CCC[C@@H]1OC(=O)c1ccc2nc(-c3cc(Cl)cc(Cl)c3)oc2c1 [Compound 116]
–	A (A is <25%)	–	A (A is <0.015)	N[C@@H](Cc1cccc(OC(=O)c2ccc3nc(-c4cc(Cl)cc(Cl)c4)oc3c2)c1)C(=O)O [Compound 28, (S)-2-amino-3-(3-((2-(3,5-dichlorophenyl)benzo[d]oxazole-6-carbonyl)oxy)phenyl) propanoic acid hydrochloride]
–	A (A is <25%)	–	A (A is <0.015)	CC(COC(=O)c1ccc2nc(-c3cc(Cl)cc(Cl)c3)oc2c1)CN(C)C (stereo not drawn) [Compound 50, 3-(dimethylamino)-2-methylpropyl 2-(3,5-dichlorophenyl) benzo [d] oxazole-6-carboxylate]
–	A (A is <25%)	–	B (B is ≥0.015 to <0.02)	CN1CCC(OC(=O)c2ccc3nc(-c4cc(Cl)cc(Cl)c4)oc3c2)C(F)(F)C1 (stereo not drawn) [Compound 14, 3,3-difluoro-1-methylpiperidin-4-yl 2-(3,5-dichlorophenyl) benzo [d]oxazole-6-carboxylate]
–	C (C is ≥50 to <75%)	–	A (A is <0.015)	O=C(OCCN1CCC1)c1ccc2nc(-c3cc(Cl)cc(Cl)c3)oc2c1 [Compound 36, 2-(azetidin-1-yl)ethyl 2-(3,5-dichlorophenyl)benzo[d]oxazole-6-carboxylate]

Structure (SMILES)	Formation of tafamidis at 60 min [1]	Formation of tafamidis at 120 min [2]	Tafamidis CSF/Plasma Ratio over 24 hrs (po) [3]	Tafamidis CSF/Plasma Ratio (iv) [3]
CN1CCCC(OC(=O)c2ccc3nc(-c4cc(Cl)cc(Cl)c4)oc3c2)C1 (stereo not drawn) [Compound 62]	B (B is ≥25 to <50%)	B (B is ≥25 to <50%)	A (A is < 0.015)	–
